Assay results published in patent publication US12673038B2, “Antimycotic methoxyflavone and fluconazole combination for inhibiting cryptococcus” (Karl-Franzens-Universität Graz, priority 2019, dated 2026).

Tested on: C. albicans
Assay: In vitro antifungal activity of flavone in combination with azoles, growth via OD490
Format: cell-based, Candida albicans
Conditions: OD490, flavone plus azole vs each alone

SMILES	enhancement of the antifungal activity of azoles in the presence of the flavone
COc1ccccc1-c1cc(=O)c2ccccc2o1 [2′-MF, 2′-methoxyflavone]	enhancement of the antifungal activity
COc1cc(OC)c2c(=O)cc(-c3ccc(OC)c(OC)c3)oc2c1 [3′,4′,5,7-TMF, 3′,4′,5,7-tetrametoxyflavone]	enhancement of the antifungal activity
COc1cc(-c2cc(=O)c3c(OC)c(OC)c(OC)cc3o2)cc(OC)c1OC [3′,4′,5′,5,6,7-HMF, 3′,4′,5′,5,6,7-hexymethoxyflaovne]	enhancement of the antifungal activity
O=c1cc(-c2ccccc2)oc2ccc3ccccc3c12 [5,6-BF, 5,6-benzoflavone]	enhancement of the antifungal activity
O=c1cc(-c2ccccc2)oc2c1ccc1ccccc12 [7,8-BF, 7,8-benzoflavone]	enhancement of the antifungal activity
COc1ccc2c(=O)cc(-c3ccccc3)oc2c1 [7-MF, 7-methoxyflavone]	enhancement of the antifungal activity

Tested on: fungi including Aspergillus and Fusarium species
Assay: not given
Conditions: Weidenbörner et al., Mycol. Res. 101 (1997); cited from earlier work

SMILES	antifungal effect
O=c1cc(-c2ccccc2)oc2ccccc12 [flavone]	displays an antifungal effect
